This passage reports IC50 results from patent US20240294551A1 (AMGEN INC., priority 2022, published 2024).

Structures are written as SMILES. Like-named read-outs stand apart in the source and are kept apart here.

For experiment [1], the target named is His-tagged KRAS G12D protein (Homo sapiens (Human), UniProt P01116, G12D). Kind of experiment: KRAS G12D TR-FRET Assay. The experiment is classed as binding. As to conditions: read-out: KRAS G12D Binding IC50. In a few lines: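 His-tagged KRAS G12D (diluted to 20 nM in pH 7.4 HEPES buffer with 10 mM MgCl2 and 10 μM GDP) was preincubated with titrated compound for 30 min at room temperature. Biotinylated KRPep-2d peptide (diluted to 20 nM) was then added for 1 h, and displacement was monitored by TR-FRET.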
Chain of His-tagged KRAS G12D protein (P01116 other isoform, or with tags, fused parts or gaps G12D): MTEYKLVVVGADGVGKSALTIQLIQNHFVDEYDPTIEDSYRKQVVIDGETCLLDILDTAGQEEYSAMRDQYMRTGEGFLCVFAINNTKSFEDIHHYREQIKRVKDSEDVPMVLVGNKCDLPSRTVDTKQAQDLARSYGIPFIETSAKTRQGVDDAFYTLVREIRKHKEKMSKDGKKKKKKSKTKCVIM

Experiment [2] deals with GDP-bound KRAS protein (aa 1-169), containing both G12D and C118A amino acid substitutions (Homo sapiens (Human), UniProt P01116, C118A/G12D). Description: KRAS G12D Coupled Nucleotide Exchange Assay. It counts as biochemical. As to conditions: read-out: KRAS G12D Coupled Exchange IC50.
Chain of GDP-bound KRAS protein (aa 1-169), containing both G12D and C118A amino acid substitutions (P01116 other isoform, or with tags, fused parts or gaps G12D/C118A): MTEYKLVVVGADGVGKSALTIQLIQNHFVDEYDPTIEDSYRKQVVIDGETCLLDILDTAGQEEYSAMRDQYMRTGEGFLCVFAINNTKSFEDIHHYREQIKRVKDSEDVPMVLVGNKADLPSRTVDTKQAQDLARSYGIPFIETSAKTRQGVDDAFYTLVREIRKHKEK
Experiment [3] concerns Phosphorylation of ERK1/2 in AsPC-1 cells. Description: Phospho-ERK1/2 MSD Assay. The experiment is classed as cell-based, human. As to conditions: read-out: 2 h p-ERK (AsPC-1 cells), IC50. In a few lines:
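Read-out: MSD electrochemiluminescent detection of phosphorylated ERK1/2 in whole-cell lysates, fitted to a 4-parameter logistic curve for IC50. Prior to lysis, AsPC-1 cells (25,000 per well) received a 2 h compound dose-response at 37 °C.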

A further experiment has as its system AsPC-1 cells. Description: AsPC-1 CTG Assay (CellTiter-Glo cell viability). It counts as cell-based, human. Particulars: AsPC-1, 72 h, first value of the cell, read-out: G12D/C/V Cell Proliferation CTG (72 h) AsPC-1. In a few lines:
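Human pancreatic AsPC-1 or colon SW620 cells in RPMI 1640 with 10% FBS, seeded overnight, then exposed to serially diluted compound for 72 h at 37 °C. CellTiter-Glo luminescence normalized to DMSO control; IC50 from a 4-parameter logistic model.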

A further experiment relates to MIA PaCa-2 cells. Kind of experiment: MIA PaCa-2 CTG Assay (CellTiter-Glo cell viability). The experiment is classed as cell-based, human. As to conditions: Mia PaCa-2, 72 h, second value of the cell, read-out: G12D/C/V Cell Proliferation CTG (72 h) Mia PaCa-2. The protocol: MIA PaCa-2 CTG Assay Protocol
MIA PaCa-2 (human pancreatic carcinoma; ATCC CRL-1420) cells were cultured in RPMI 1640 medium containing 10% fetal bovine serum and 1× penicillin/streptomycin/L-glutamine. Cells were seeded in 384-well plates at a density of 1.67E+04 cells/mL and incubated at 37° C., 5% CO2, overnight. Serially-diluted compound or DMSO was added to the cells, and plates were incubated at 37° C., 5% CO2 for 72 h. Cell viability was measured using a CellTiter-Glo® Luminescent Cell Viability Assay kit (Promega) according to the manufacturer's protocol. The luminescence signal of treated samples was normalized to DMSO control, and data were analyzed using a 4-parameter logistic model to calculate IC50 values.

For the compound `Cc1cc2[nH]ncc2c2c1CCCOC(=O)O[C@@H]1CCCCN(C1)c1nc(OC[C@@]34CCCN3C[C@H](F)C4)nc3c(F)c-2ncc13` [Example 98, (26R)-32-fluoro-4-(((2R,7aS)-2-fluorotetrahydro-1H-pyrrolo[1,2-a]pyrrol-7a(5H)-yl)methoxy)-18-methyl-23,25-dioxa-1,3,5,9,14,15-hexaazahexacyclo[24.4.1.1~6,10~.0~2,7~.0~11,19~.0~12,16~]dotriaconta-2,4,6,8,10(32),11,13,16,18-nonaen-24-one], the IC50 stood at 4 nM in experiment [1]; 2 nM in experiment [2]; 17 nM in experiment [3] (Homo sapiens, ASPC1, 2 h); 140 nM in the experiment on AsPC-1 cells (Homo sapiens, ASPC1, 72 h); 50 nM in the experiment with MIA PaCa-2 cells (Homo sapiens).
`Cc1cc2[nH]ncc2c2c1CCCC(=O)OCC1CCCN(C1)c1nc(OC[C@@]34CCCN3C[C@H](F)C4)nc3c(F)c-2ncc13` (some centres unmarked) [Example 104]: the IC50 is 7 nM in experiment [1]; 2 nM in experiment [2]; 38 nM in experiment [3] (Homo sapiens, ASPC1, 2 h); 860 nM with AsPC-1 cells (Homo sapiens, ASPC1, 72 h); 300 nM with MIA PaCa-2 cells (Homo sapiens).
As for `Cc1cc2[nH]ncc2c2c1CCOC(=O)OC[C@@H]1CCCN(C1)c1nc(OC[C@@]34CCCN3C[C@H](F)C4)nc3c(F)c-2ncc13` [Example 126, (17R)-30-Fluoro-24-(((2R,7aS)-2-fluorotetrahydro-1H-pyrrolo[1,2-a]pyrrol-7a(5H)-yl)methoxy)-9-methyl-13,15-dioxa-5,6,21,23,25,29-hexaazahexacyclo[24.3.1.1˜17,21˜.0˜2,10˜.0˜3,7˜.0˜22,27˜]hentriaconta-1(30),2,4,7,9,22,24,26,28-nonaen-14-one bis(2,2,2-trifluoroacetate)], the IC50 in experiment [1] was found to be 2 nM; in experiment [2] it was 1 nM; in experiment [3] (Homo sapiens, ASPC1, 2 h) it was 10 nM; with AsPC-1 cells (Homo sapiens, ASPC1, 72 h), 160 nM; with MIA PaCa-2 cells (Homo sapiens), 60 nM.
For the compound `O=C1CC[C@@H]2C[C@@H]2c2c(Cl)cc3[nH]ncc3c2-c2ncc3c(nc(OC[C@@]45CCCN4C[C@H](F)C5)nc3c2F)N2CCC[C@H](C2)O1` [Example 127], the IC50 in experiment [1] worked out at 4 nM; in experiment [2], 3 nM; in experiment [3] (2 h), 13 nM; in the experiment on AsPC-1 cells, 230 nM; in the experiment with MIA PaCa-2 cells, 120 nM.
Consider `Cc1cc2[nH]ncc2c2c1C/C=C\COC[C@@H]1CCCN(C1)c1nc(OC[C@@]34CCCN3C[C@H](F)C4)nc3c(F)c-2ncc13` [Example 131], for which the IC50 was 6 nM in experiment [1]; 3 nM in experiment [2]; 41 nM in experiment [3] (Homo sapiens, ASPC1, 2 h); 370 nM with AsPC-1 cells (Homo sapiens, ASPC1, 72 h); 230 nM in the experiment on MIA PaCa-2 cells (Homo sapiens).
In the same order, the values of `Fc1c2ncc3c(nc(OC[C@@]45CCCN4C[C@H](F)C5)nc13)N1CCCO[C@@H](COCCCCc3c(Cl)cc4[nH]ncc4c3-2)C1` [Example 140] are 5 nM, 4 nM, 83 nM, 650 nM and 100 nM.
Turning to `Cc1cc2[nH]ncc2c2c1CCCn1ccc(n1)[C@H]1CCCN(C1)c1nc(OC[C@@]34CCCN3C[C@H](F)C4)nc3c(F)c-2ncc13` [Example 154, (18S)-31-fluoro-25-(((2R,7aS)-2-fluorotetrahydro-1H-pyrrolo[1,2-a]pyrrol-7a(5H)-yl)methoxy)-9-methyl-5,6,14,22,24,26,30,33-octaazaheptacyclo[25.3.1.1~14,17~.1~18,22~.0~2,10~.0~3,7~.0~23,28~]tritriaconta-1(31),2,4,7,9,15,17(33),23,25,27,29-undecaene], the IC50 in experiment [1] was 2 nM; in experiment [2] it was 4 nM; in experiment [3] (Homo sapiens, ASPC1, 2 h) it was 252 nM; in the experiment with AsPC-1 cells (Homo sapiens, ASPC1, 72 h), 3360 nM; in the experiment on MIA PaCa-2 cells (Homo sapiens) it was 230 nM.
In the same order, the values of `O=C1OCCCc2c(Cl)cc3[nH]ncc3c2-c2ncc3c(nc(OC[C@H]4CC[C@@H]5COCCN54)nc3c2F)N2CCOC[C@H](C2)O1` [Example 185, (26S)-18-chloro-32-fluoro-4-((6R,8aR)-hexahydro-1H-pyrrolo[2,1-c][1,4]oxazin-6-ylmethoxy)-23,25,28-trioxa-1,3,5,9,14,15-hexaazahexacyclo[24.4.1.1~6,10~.0~2,7~.0~11,19~.0~12,16~]dotriaconta-2,4,6,8,10(32),11,13,16,18-nonaen-24-one] are 6 nM, 5 nM, 12 nM, 38 nM and 33 nM.
In the same order, the values of `O=C1OCCCc2c(Cl)cc3[nH]ncc3c2-c2c(F)cc3c(nc(OC[C@@]45CCCN4C[C@H](F)C5)nc3c2F)N2CCOC[C@H](C2)O1` [Example 187, p-(26S)-18-chloro-9,32-difluoro-4-(((2R,7aS)-2-fluorotetrahydro-1H-pyrrolo[1,2-a]pyrrol-7a(5H)-yl)methoxy)-23,25,28-trioxa-1,3,5,14,15-pentaazahexacyclo[24.4.1.1~6,10~.0~2,7~.0~11,19~.0~12,16~]dotriaconta-2,4,6,8,10(32),11,13,16,18-nonaen-24-one] are 4 nM, 2 nM, 4.6 nM, 76 nM and 15 nM.
The corresponding values for `O=C1OCCCc2c(Cl)cc3[nH]ncc3c2-c2ccc3c(nc(OC[C@@]45CCCN4C[C@H](F)C5)nc3c2F)N2CCOC[C@H](C2)O1` [Example 189, (26S)-18-chloro-32-fluoro-4-(((2R,7aS)-2-fluorotetrahydro-1H-pyrrolo[1,2-a]pyrrol-7a(5H)-yl)methoxy)-23,25,28-trioxa-1,3,5,14,15-pentaazahexacyclo[24.4.1.1~6,10~.0~2,7~.0~11,19~.0~12,16~]dotriaconta-2,4,6,8,10(32),11,13,16,18-nonaen-24-one] are 3 nM, 2 nM, 4.9 nM, 115 nM and 24 nM.
With `CN1CCC[C@H]1COc1nc2c3cnc(c(F)c3n1)-c1c(c(Cl)cc3[nH]ncc13)CCCOC(=O)O[C@@H]1CCCCN2C1` [Example 202, (26R)-18-chloro-32-fluoro-4-(((2S)-1-methyl-2-pyrrolidinyl)methoxy)-23,25-dioxa-1,3,5,9,14,15-hexaazahexacyclo[24.4.1.1~6,10~.0~2,7~.0~11,19~.0~12,16~]dotriaconta-2,4,6,8,10(32),11,13,16,18-nonaen-24-one], the IC50 in experiment [1] came out at 6 nM; in experiment [2], 3 nM; in experiment [3] (Homo sapiens, ASPC1, 2 h) it was 41.1 nM; with AsPC-1 cells (Homo sapiens, ASPC1, 72 h), 494 nM; with MIA PaCa-2 cells (Homo sapiens) it was 113 nM.
For the compound `O=C1OCCCc2c(F)cc3[nH]ncc3c2-c2ncc3c(nc(OC[C@@]45CCCN4C[C@H](F)C5)nc3c2F)N2CCOC[C@H](C2)O1` [Example 208, (26S)-18,32-difluoro-4-(((2R,7aS)-2-fluorotetrahydro-1H-pyrrolo[1,2-a]pyrrol-7a(5H)-yl)methoxy)-23,25,28-trioxa-1,3,5,9,14,15-hexaazahexacyclo[24.4.1.1~6,10~.0~2,7~.0~11,19~.0~12,16~]dotriaconta-2,4,6,8,10(32),11,13,16,18-nonaen-24-one], the IC50 in experiment [1] came to 3 nM; in experiment [2] it was 2 nM; in experiment [3] (Homo sapiens, ASPC1, 2 h), 20.7 nM; in the experiment on AsPC-1 cells (Homo sapiens, ASPC1, 72 h), 262 nM; with MIA PaCa-2 cells (Homo sapiens), 38 nM.
On to `O=C1OCCc2c(Cl)cc3[nH]ncc3c2-c2ncc3c(nc(OC[C@@]45CCCN4C[C@H](F)C5)nc3c2F)N2CCO[C@@H](CO1)C2` [Example 217], for which the IC50 in experiment [1] came to 4 nM; in experiment [2], 2 nM; in experiment [3] (Homo sapiens, ASPC1, 2 h), 23 nM; in the experiment with AsPC-1 cells (Homo sapiens, ASPC1, 72 h), 455 nM; in the experiment on MIA PaCa-2 cells (Homo sapiens), 49 nM.
